Measurements as given in patent US11226337B2, “Chemoproteomic profiling of protein electrophilic and oxidative post-translational modifications” (Zenagem, LLC, priority 2017, dated 2022).

Key:
[1] = target: T1, CTSZ Cathepsin Z (Q9UBR2) (Homo sapiens, UniProt Q9UBR2); test: SILAC RP-ABPP; type: cell-based; conditions: SILAC H/L, MDA-MB-231
T1 construct: In Situ Labelling of Cells with Hydrazine Probes for MS Experiments; endogenous in cells; host or cells: HEK293T and MDA-MB-231
Protocol: (§1) For MS-based experiments, labelling was performed in a similar manner as described above in Example 2, maintaining the same concentrations of probes. Modifications to this protocol included using isotopically ‘light’ and ‘heavy’ SILAC cells that were also grown to near complete confluence prior to treatment. Isotopically light cells were treated with the non-clickable hydrazine probe (at the same concentration as the probe in ‘enrichment’ experiments) or the probe in the presence of 10-fold excess non-clickable hydrazine probe as a competitor (in ‘competition’ experiments). Isotopically heavy cells were treated with the probe for both types of experiments. These treatments were performed in non-SILAC media. Following treatments, cells were washed with cold PBS to remove the probe-containing media, harvested by scraping, collected by centrifugation (1,400 g, 3 min, 4° C.), washed again by resuspension in cold PBS and frozen as pellets at −80° C. until use.
(§2) The fractionated equimolar mixture of heavy and light soluble proteomes (1-1.5 mg) was diluted to 1 mL in PBS. Click reactions were scaled accordingly (except for biotin-azide) to maintain final concentrations of 0.1 mM TBTA, 1 mM CuSO4, 100 μM biotin-azide (10 mM in DMSO) and 1 mM TCEP. The mixture was vortexed and placed on a rotator at ambient temperature for 1 hour. Sequential addition of and mixture with pre-chilled methanol (MeOH, 2 mL), chloroform (CHCl3, 0.5 mL) and PBS (1 mL) on ice quenched the reaction. The precipitated proteome was centrifuged (5,000 g, 10 min, 4° C.) to fractionate the protein interphase from the organic and aqueous solvent layers. The protein pellet was washed with cold 1:1 MeOH:CHCl3 (3×1 mL), mildly sonicated in cold 4:1 MeOH:CHCl3 (2.5 mL) and pelleted once more by centrifugation (5,000 g, 10 min, 4° C.) to ensure click reagents were efficiently removed.
(§3) Heavy and light parent ion chromatograms associated with successfully identified peptides were extracted and compared using CIMAGE software as previously described^69. At least one ion of a co-eluting heavy-light pair must be accurately identified from a fragmentation event that occurred within the retention time window (±10 min) of parent ion elution. To ensure that the correct pair of peaks is quantified, chromatograms are extracted within a 10 ppm error tolerance of the predicted m/z, the signal-to-noise ratio must be >2.5 and the ‘co-elution correlation score’ and ‘envelope correlation score’ must have R^2 values ≥0.8. In addition, peptides detected as ‘singletons,’ where only the heavy ion of a peptide pair was identified, but for which passed all other filtering parameters, are given a default assigned ratio of ‘20,’ which is defined as any measured ratio that is ≥20.
(§4) To further eliminate false positives and any stochastic variability in the data, protein ratios were then determined by the median peptide ratio derived from three or more unique quantified peptides. Protein ratios that complied with these criteria from a single experiment were then averaged with ratios acquired from ≥3 replicates to provide final values for each type of experiment in both cell lines with both probes. […] Most importantly, there are no robustly measured ratios for proteins identified as probe 1 targets that had measured ratios of ˜1 with probe 2. Probe targets in HEK293T and MDA-MB-231 cells represent data combined from ≥3 independent biological replicates with each cell type performed with several independent batches of synthesized probes over a period of almost two years. […]

[2] = target: T2, TPP1 Tripeptidylpeptidase 1 (O14773) (Homo sapiens, UniProt O14773); test: SILAC RP-ABPP; type: cell-based; conditions: SILAC H/L, MDA-MB-231
T2 construct: In Situ Labelling of Cells with Hydrazine Probes for MS Experiments; endogenous in cells; host or cells: HEK293T and MDA-MB-231
T2 sequence (O14773 196-563): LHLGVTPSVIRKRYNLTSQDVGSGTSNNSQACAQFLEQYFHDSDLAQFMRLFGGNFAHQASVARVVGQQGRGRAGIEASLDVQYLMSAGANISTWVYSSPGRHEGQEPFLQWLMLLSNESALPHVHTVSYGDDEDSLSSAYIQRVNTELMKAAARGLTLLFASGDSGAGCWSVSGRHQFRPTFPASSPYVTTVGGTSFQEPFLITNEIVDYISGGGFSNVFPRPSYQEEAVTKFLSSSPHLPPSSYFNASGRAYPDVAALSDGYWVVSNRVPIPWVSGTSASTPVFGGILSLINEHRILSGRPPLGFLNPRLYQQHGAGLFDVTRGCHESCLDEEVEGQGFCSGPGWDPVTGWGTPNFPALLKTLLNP
Protocol: as §1, §2, §3, §4

[3] = test system: HEK293T and MDA-MB-231 cells; test: determination of high-reactivity protein targets (SILAC RP-ABPP); type: cell-based, human; conditions: enrichment ratio >5 and competition ratio >4
Protocol: as §4, with “2.” for “2. Probe targets in HEK293T and MDA-MB-231 cells represent data combined from ≥3 independent biological replicates with each cell type performed with several independent batches of synthesized probes over a period of almost two years.”
Two types of experiments were performed—1) direct enrichment of probe 1-labelled proteins from heavy cells in comparison to light control cells treated with the non-clickable hydrazine (3) at the same concentration as 1 (3 mM for 0.5 h); and 2) competition experiments where both heavy and light cells were treated probe 1, but light cells were also treated with 10× competitor 3 (FIG. 3A)—in two different human cell lines (HEK293T cells and the human breast cancer cell line MDA-MB-231). […] The target list was further refined by requiring that each protein was detected with a minimum of three unique quantified peptides per experiment and by averaging protein ratios across three or more biological replicates per cell line.

T1 sequence (Q9UBR2 62-303): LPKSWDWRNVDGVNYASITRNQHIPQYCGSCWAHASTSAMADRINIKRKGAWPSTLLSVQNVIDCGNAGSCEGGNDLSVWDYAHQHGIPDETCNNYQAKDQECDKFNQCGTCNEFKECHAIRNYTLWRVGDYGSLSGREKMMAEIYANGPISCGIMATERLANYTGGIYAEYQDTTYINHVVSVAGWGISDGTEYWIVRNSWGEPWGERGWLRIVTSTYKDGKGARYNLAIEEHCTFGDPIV

Row | Compound | enrichment ratioavg ([1]; probe 1 3 mM 0.5 h vs probe 3) | competition ratioavg ([1]; probe 1 vs probe 1+10x probe 3) | enrichment ratioavg ([2]; probe 1 3 mM 0.5 h vs probe 3) | competition ratioavg ([2]; probe 1 vs probe 1+10x probe 3) | number of high-reactivity proteins [3] | enrichment ratioavg ([1]; probe 2 1 mM 0.5 h vs probe 4) | competition ratioavg ([1]; probe 2 vs probe 2+10x probe 4) | enrichment ratioavg ([2]; probe 2 1 mM 0.5 h vs probe 4) | competition ratioavg ([2]; probe 2 vs probe 2+10x probe 4)
1 | C#CCNN.Cl [probe 1, prop-2-yn-1-ylhydrazine hydrochloride] | 13 | 3 | 15 | 3 | ten |  |  |  | 
2 | C#CCCNC(=O)c1ccc(NN)cc1.Cl [probe 2, N-(but-3-yn-1-yl)-4-hydrazinylbenzamide hydrochloride] |  |  |  |  | 33 | 19 | 5 | 18 | 4
